Test results as given in patent publication US20260034192A1 (University of Saskatchewan, priority 2022, published 2026).
Several values for one entry are separate records, joined by “and”; a condition that tells them apart may be missing. Identical values can stand only once. Marks after values point to notes of the source that are not given here. Square brackets hold non-standard residues; d marks the D form. Peptide text beside a SMILES is read from it. dPhe(4-Cl) = N[C@H](Cc1ccc(Cl)cc1)C(=O)O; d2Nal = N[C@H](Cc1ccc2ccccc2c1)C(=O)O; dCit = NC(=O)NCCC[C@@H](N)C(=O)O; d3Pal = N[C@H](Cc1cccnc1)C(=O)O

Legend:
[1] = test system: pubertal Hereford-cross beef heifers; assay: Two 1.5 mg Cetrorelix injections at pre-selection, growing or late-static phase in beef heifers (Example 4); type: in vivo, cattle
Method: The study was conducted on pubertal Hereford-cross beef heifers (n=32) at the U. Sask. Livestock and Forage Centre of Excellence (LFCE). Initial transrectal ultrasonography was performed to confirm the puberty by the presence or absence of a corpus luteum (CL). Animals were also weighed at this time. Animals with a functional CL were administered an intramuscular (im) injection of prostaglandin F2a analog (cloprostenol) to cause CL regression and ovulation. Daily ultrasonography was performed to detect ovulation and to record the number, size and location of follicles and CL in both ovaries. The day of emergence of a follicular wave was initially estimated by sudden increase in the number of 3-4 mm follicles and confirmed retrospectively as the day on which the dominant follicle was first detected at 4 to 5 mm in size (defined as Day 0). Follicular and hormonal data (see next section for endpoints) from all animals was collected for one complete inter-ovulatory interval.
Animals were randomized into 4 groups based on the day of ovulation. Group 1 (control group) heifers were given 3 mL normal saline (sham-treated negative control; n=3 on Days 1 and 2, n=3 on Days 3 and 4, n=2 on Days 6 and 7). Group 2 heifers were given 1.5 mg Cetrorelix on Days 1 and 2 (pre-selection dominant follicle phase; n=8), Group 3 heifers were given Cetrorelix on Days 3 and 4 (dominant follicle growing phase; n=8), and Group 4 heifers were given Cetrorelix on Days 6 and 7 (dominant follicle late-static/early regressing phase; n=8). The dose of Cetrorelix (1.5 mg per treatment), route of administration (intramuscular) and duration of treatment (i.e., 2 doses at 24 hr interval) were selected based on Example 2 and previous studies in cattle (Ulker et al, 2001).
Changes in the size of the dominant follicle, largest subordinate follicle and CL, and the number of follicles in 3-5, 6-8, and 9+mm size categories were recorded daily from initial ovulation to the first post-treatment ovulation. The inter-wave interval was determined based on duration between emergence of successive follicular waves.
Blood samples were also collected every 12 hours by jugular venipuncture for measurement of plasma LH concentrations from −36 hr to +72 hr of treatment. Blood samples were collected daily for measurement of plasma progesterone concentrations from 1 day before to 7 days after treatment. A Proc Mixed repeated measures analysis of variance (SAS version 9.4) was performed to compare serial data (follicle size, follicle numbers, CL size, plasma LH, plasma progesterone).

[2] = test system: pubertal Hereford-cross beef heifers; assay: Cetrorelix in luteal versus preovulatory phase, hCG ovulation challenge in heifers (Example 6); type: in vivo, cattle; details: high and low progesterone, 3 mg i/m
Method: Experimental design: The study was conducted on pubertal Hereford-cross beef heifers (n=24) at the U. Sask. Livestock and Forage Centre of Excellence (LFCE) using a 2×2 factorial design (Table 15). Initial transrectal ultrasonography was performed to confirm post-pubertal or post-partum cyclicity by the presence or absence of a corpus luteum (CL). Animals with a CL were weighed and treated with prostaglandin F2a analog as in Example 4 and monitored by ultrasonography to detect ovulation. Day of ovulation was considered the day of wave emergence (defined as Day 0).
On the day of ovulation, heifers were randomized into 4 groups. Those in the preovulatory groups were given prostaglandin on Days 4 and 4.5 of the wave while those in the luteal groups were allowed to maintain the CL (i.e., no prostaglandin treatment). Treatments was given as outlined in Table 16 and schematic time line FIG. 8. Cetrorelix groups were given 3 mg cetrorelix i/m on Day 5. All animals were treated with hCG (Chorulon, 1500 IU, im) on Day 7 of the wave (i.e., 48 hr after Cetrorelix/saline treatment) to determine the ovulatory potential of the dominant follicle.
Blood samples were taken 24 hr after cetrorelix or no treatment (control groups) for measurement of plasma concentrations of LH and progesterone. Data was analyzed in a similar manner to Example 4.

[3] = test system: alpacas; assay: Alpaca random day study, single Cetrorelix injection (Example 3); type: in vivo; details: for Duration from treatment to next wave emergence, mean / Variance of duration from treatment to wave emergence (synchrony): alpacas, n = 15, single i/m 1.5 mg on random day of wave
Method: Methods: Ultrasonographic methods and follicular endpoint recording were similar to those described in Example 2. Follicular endpoints were obtained from alpacas (n=15) before and after treatment, therefore each animal acts as its own control. A fixed calendar day (July 16) was pre-assigned for Cetrorelix treatment. Daily transrectal ultrasonography was performed (n=15 alpacas) from May 31 to June 16. This examination period was used to record the variance in wave emergence from a fixed calendar date (May 31) without giving treatment (control period). Animals were at unknown/random day of the wave at the beginning of this 17-day time-window (i.e., longer than one natural inter-wave interval); therefore, all animals were expected to have at least one wave emergence encompassing this period. All alpacas were treated with a single intramuscular injection of 1.5 mg (3 mL) Cetrorelix acetate on July 16 and daily ultrasound examinations continued from the day of treatment until Day 3 after the next (post-treatment) wave emergence (treatment period). Synchrony of wave emergence was compared between the control period and the treatment period.
Statistical analyses: A Proc Mixed repeated measures analysis of variance (SAS version 9.4) was performed to compare serial data (follicle size and follicle numbers changes over days) and ANOVA or paired T-test were used for single-point numerical measurements. Count data were compared using Fisher's Exact test. Synchrony of the wave emergence was compared using Barlett's and Levene's tests of homogeneity of the variance.

[4] = after single injection of 0.25 mg in women; cited from earlier work

CC(=O)N[C@H](Cc1ccc2ccccc2c1)C(=O)N[C@H](Cc1ccc(Cl)cc1)C(=O)N[C@H](Cc1cccnc1)C(=O)N[C@@H](CO)C(=O)N[C@@H](Cc1ccc(O)cc1)C(=O)N[C@H](CCCNC(N)=O)C(=O)N[C@@H](CC(C)C)C(=O)N[C@@H](CCCNC(=N)N)C(=O)N1CCC[C@H]1C(=O)N[C@H](C)C(N)=O [Cetrorelix, N-acetyl-3-(2-naphthyl)-D-alanyl-4-chloro-D-phenylalanyl-3-(3-pyridyl)-D-alanyl-L-seryl-L-tyrosyl-D-citrullyl-L-leucyl-L-arginyl-L-prolyl-D-alaninamide] (Ac-[d2Nal][dPhe(4-Cl)][d3Pal]SY[dCit]LRP[dA]-NH2)
Days from treatment to next wave emergence ([1]; 1.5 mg i/m on Day 1-2 of wave): 5.9 ± 0.4 days | Days from treatment to next wave's dominant follicle at 9 mm ([1]; 1.5 mg i/m on Day 1-2 of wave): 9.1 ± 0.8 days | Interovulatory Interval ([1]; 1.5 mg i/m on Day 1-2 of wave): 21.5 ± 1.4 | Interwave Interval ([1]; 1.5 mg i/m on Day 1-2 of wave): 6.9 ± 0.4^b | Largest Dominant Follicle Diameter (mm) ([1]; 1.5 mg i/m on Day 1-2 of wave): 10.3 ± 0.6^b mm | Largest Subordinate Follicle Diameter (mm) ([1]; 1.5 mg i/m on Day 1-2 of wave): 7.1 ± 0.5^b mm | Number of Follicles at WE ([1]; 1.5 mg i/m on Day 1-2 of wave): 19.3 ± 2.0 | Time to Largest Dominant (days) ([1]; 1.5 mg i/m on Day 1-2 of wave): 6.3 ± 0.9^ab days | Time to Largest Subordinate ([1]; 1.5 mg i/m on Day 1-2 of wave): 3.1 ± 0.6 days | Length of Wave 2 ([1]; 1.5 mg i/m on Day 1-2 of wave, in d (unit assumed)): 9.3 ± 0.7 | Days from treatment to next wave emergence ([1]; 1.5 mg i/m on Day 3-4 of wave): 5.8 ± 0.5 days | Days from treatment to next wave's dominant follicle at 9 mm ([1]; 1.5 mg i/m on Day 3-4 of wave): 9.5 ± 0.5 days | Interovulatory Interval ([1]; 1.5 mg i/m on Day 3-4 of wave): 20.3 ± 0.4 | Interwave Interval ([1]; 1.5 mg i/m on Day 3-4 of wave): 8.9 ± 0.4^ab | Largest Dominant Follicle Diameter (mm) ([1]; 1.5 mg i/m on Day 3-4 of wave): 10.6 ± 0.4^b mm | Largest Subordinate Follicle Diameter (mm) ([1]; 1.5 mg i/m on Day 3-4 of wave): 6.9 ± 0.4^b mm | Number of Follicles at WE ([1]; 1.5 mg i/m on Day 3-4 of wave): 20.9 ± 2.7 ^ | Time to Largest Dominant (days) ([1]; 1.5 mg i/m on Day 3-4 of wave): 4.6 ± 0.6^b days | Time to Largest Subordinate (days) ([1]; 1.5 mg i/m on Day 3-4 of wave): 4.0 ± 1.0^ days | Length of Wave 2 ([1]; 1.5 mg i/m on Day 3-4 of wave, in d (unit assumed)): 9.1 ± 0.8 | Days from treatment to next wave emergence ([1]; 1.5 mg i/m on Day 6-7 of wave): 4.3 ± 0.6 days | Days from treatment to next wave's dominant follicle at 9 mm ([1]; 1.5 mg i/m on Day 6-7 of wave): 8.3 ± 0.7 days | Interovulatory Interval ([1]; 1.5 mg i/m on Day 6-7 of wave): 19.6 ± 0.6 | Interwave Interval ([1]; 1.5 mg i/m on Day 6-7 of wave): 10.3 ± 0.6^a | Largest Dominant Follicle Diameter (mm) ([1]; 1.5 mg i/m on Day 6-7 of wave): 12.9 ± 0.4^a mm | Largest Subordinate Follicle Diameter (mm) ([1]; 1.5 mg i/m on Day 6-7 of wave): 7.9 ± 0.6^b mm | Length of Wave 2 ([1]; 1.5 mg i/m on Day 6-7 of wave): 8.3 ± 0.5 | Number of Follicles at WE ([1]; 1.5 mg i/m on Day 6-7 of wave): 15.8 ± 1.1 | Time to Largest Dominant (days) ([1]; 1.5 mg i/m on Day 6-7 of wave): 6.8 ± 0.9^ab days | Time to Largest Subordinate ([1]; 1.5 mg i/m on Day 6-7 of wave): 3.9 ± 0.5 days | Wave emergence after the first Cetrorelix treatment irrespective of phase of dominant follicle ([1]; two 1.5 mg (about 3.75 ug/kg) i/m doses 24 hr apart, groups combined): 5.3 ± 0.3 days | Next wave dominant follicle ready for ovulation ([1]; two 1.5 mg i/m doses): 9 days | Time for which dominant/pre-ovulatory follicle maintains ovulatory potential after cetrorelix treatment [2]: at least 48 hr | Duration from treatment to next wave emergence, mean [3]: 5.33 ± 0.70 days and 5.33 days | Variance of duration from treatment to wave emergence (synchrony) [3]: 7.38 | Duration from treatment to next wave emergence, mean ([3]; listed as Cetro): 5.33 days | Variance of duration from treatment to wave emergence (synchrony) ([3]; listed as Cetro): 7.381 | Duration from treatment to next wave emergence, mean ([3]; listed as cetrorelix): about 5.33±0.70 days | Duration from Treatment to Wave Emergence ([3]; individual alpacas, single i/m injection of 1.5 mg Cetrorelix on random day of wave): 11 days and 3 days (2×) and 4 days (6×) and 9 days and 1 days and 6 days and 8 days (2×) and 7 days | Elimination half-life [4]: 5 h
